The results in this text go back to article PMC8805583, “Discovery of Herbacetin as a Novel SGK1 Inhibitor to Alleviate Myocardial Hypertrophy” (Advanced Science, 2021).

One test deals with rat cardiomyocytes. The test is described as follows: ROS (DCFH-DA) and Ca2+ (Fluo-4 AM) detection in PE-stimulated cardiomyocytes. The format is cell-based. An excerpt:
Elevated cytoplasmic calcium was also observed in PE‐stimulated rat cardiomyocytes after Fluo‐4 AM staining. […] Since the channel subunit Orai1 and stromal interaction molecule 1 (STIM1) are known to participate in the orchestration of Ca^2+ entry into cells and are regulated by multiple kinases including SGK1,^[ [33] ^] we examined if HBT regulates their activities. […] Orai1 may be regulated by Nedd4‐like E3 ubiquitin protein ligase (Nedd4l) mediated degradation or the transcription factor nuclear factor‐κB (NF‐κB) dependent transcription, so we detected the effects of HBT on SGK1 downstream proteins. […] Therefore, HBT may also attenuate cardiomyocyte hypertrophy by reducing cytoplasmic calcium level.
Fluo-4 AM were obtained from Beyotime. SGK1 antibody and GAPDH antibody were obtained from Beyotime. FoxO1, Phospho-FoxO1 (Ser256), p44/42 MAPK (Erk1/2), […]
p65, Phospho-GSK-3β (Ser9), GSK-3β, Phospho-NDRG1 (Thr346), NDRG1, Phospho-NEDD4L (Ser342), NEDD4L, HO-1, Nrf2 and MnSOD antibody were obtained from Cell Signaling. Phospho-SGK1(S422) antibody was obtained from Affinity. Orai1, STIM1, ACTA1 and FLAG antibody were obtained from Proteintech. BNP antibody was obtained from Abcam. ANP antibody was obtained from Santa Cruz Biotechnology. Myosin antibody was obtained from Sigma-Aldrich. Reference compounds were obtained from Shanghai Yuanye Biotechnology. Lipofectamine 2000 transfection reagent was purchased from Invitrogen. Protein A/G agarose was purchased from Beaver Biotechnology.
Phenylephrine (PE) was obtained from Aladdin. Deionized water was prepared with an Elga PURELAB flex system (ELGA LabWater, UK). […]
Micro® Confocal High-Content Imaging System (Molecular Devices). […]
BSA for 1 h, the cells were incubated overnight at 4 °C with rabbit anti-FoxO1 antibody and then with goat anti-rabbit AlexaFluor 488–conjugated antibody for 1 h at room temperature.
Nuclei were stained with Hoechst. Images were acquired using a high-resolution laser confocal microscope (Leica) using an oil immersion A-Plan ×63 objective.
3. ROS and Ca2+ Detection
ROS and Ca2+ levels were detected using DCFH-DA and Fluo-4 AM reagent (Beyotime) respectively according to the manufacturer’s instructions. After incubated for 48 hours, the supernatant was removed and cells were washed with PBS for three times. 100 μL DCFH-DA […]
or Fluo-4 AM working solution was added to each well and incubated at 37℃ for 20 minutes.
Then the cells were washed with PBS for 3 times and images were acquired using an ImageXpress Micro® Confocal High-Content Imaging System (Molecular Devices). The mean fluorescence intensity of cells positive for DCFH-DA or Fluo-4 AM staining was […]
4. Histology and Immunohistochemistry (IHC) […]
(Sigma) according to the manufacturer’s protocol. […]

Test [1] deals with primary rat cardiomyocytes. The test is described as follows: Phenylephrine (PE)-induced hypertrophy in primary cardiomyocytes (phalloidin cell area, RT-PCR, western blot). It counts as cell-based. For orientation: In western blotting, separated proteins are transferred to a membrane and probed.
Description: The magnitude of cardiac hypertrophy was then evaluated by directly measuring the cell area after Alexa Fluor 488 phalloidin staining.
Primary cultures of cardiac myocytes were prepared from neonatal rat hearts using the Neonatal Heart Dissociation Kit (MACS, Germany) according to the manufacturer's protocol. Cardiomyocyte cultures were plated in gelatin‐coated plates in a plating medium containing 10% serum. After 24 h of plating, the medium was then replaced with a serum‐free maintenance medium and incubated for another 24 h before being used for further study.
For phenylephrine (PE)‐mediated cardiac hypertrophy, cardiomyocytes cultured in 6‐well plates were stimulated with PE (50 µmol) for 48 h in serum‐free medium with or without Ext.R or HBT (50 µmol) treatment. Cardiomyocytes were lysed in cell lysis buffer to isolate protein or total RNA for western blotting or PCR analysis.
Phalloidin Staining and Immunofluorescence
To determine phenylephrine-induced hypertrophy, Alexa Fluor 488 Phalloidin (Cell Signaling) was used to fluorescently stain the cytoskeleton by the binding of phalloidin to F­actin. In brief, cells were fixed for 15 min using 4% paraformaldehyde then rinsed three times in PBS.
Following incubation of Alexa Fluor 488 Phalloidin and Hoechst for 15 min at room temperature, cells were rinsed once with PBS. Images were carried out using an ImageXpress Micro® Confocal High-Content Imaging System (Molecular Devices).
A further test concerns the target T1, SGK1 (Homo sapiens, UniProt O00141).
T1 sequence (O00141 1-431): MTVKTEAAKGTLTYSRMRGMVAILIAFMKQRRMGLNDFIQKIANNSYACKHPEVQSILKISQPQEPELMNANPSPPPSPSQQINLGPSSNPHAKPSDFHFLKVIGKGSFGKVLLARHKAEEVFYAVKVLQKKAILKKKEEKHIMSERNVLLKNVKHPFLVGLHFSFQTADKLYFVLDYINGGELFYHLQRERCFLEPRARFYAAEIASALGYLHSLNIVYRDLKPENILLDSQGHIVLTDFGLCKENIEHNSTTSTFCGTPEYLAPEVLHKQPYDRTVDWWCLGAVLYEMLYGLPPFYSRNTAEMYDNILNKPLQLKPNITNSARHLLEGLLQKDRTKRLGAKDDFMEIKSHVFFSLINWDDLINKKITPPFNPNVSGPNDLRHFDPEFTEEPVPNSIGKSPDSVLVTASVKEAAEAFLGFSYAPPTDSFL
Description: KINOMEscan direct binding assay (Eurofins Discovery). An excerpt: To identify active compounds with SGK1 inhibitory activity from Ext.R, a novel mass‐spectrometry based kinase inhibitory assay was developed. A polypeptide sequence ([…], m/z: 618.6) derived from glycogen Synthase Kinase‐3(GSK3), a known substrate of SGK1, was optimized and synthesized. We subsequently used liquid chromatography coupled with mass spectrometry (LC/MS) to detect and quantify its phosphorylation level ([…](p)FAE, m/z:658.7) (Figure 3A).^[ [26] ^] Basal level SGK1 was supplemented to each well, and the peak area of phosphorylation was measured in the presence or absence of testing compounds. […] After investigating the major chemical constituents in Ext.R (Table S3, Supporting Information), a set of compounds in Ext.R were subsequently screened for their impacts on SGK1 activity. […] The direct interaction between HBT and SGK1 was further verified by temperature‐ and dose‐dependent cellular thermal shift assays (Figure 3E,F). We further performed a direct binding assay of HBT to SGK1 by KINOMEscan assay (Eurofins Discovery).
The initial crystal structures of SGK1 (PDB entry: 3HDN, 3HDM, and 2R5T) were obtained from the Protein Data Bank (PDB). The prepared inhibitors were then docked by Glide with the extra precision (XP) scoring mode to estimate the binding affinity for each protein–ligand complex. The detailed process of docking has been described previously.^[ [46] ^] […]

With `O=c1c(O)c(-c2ccc(O)cc2)oc2c(O)c(O)cc(O)c12` [HBT, herbacetin], in the test on rat cardiomyocytes (PE stimulation, cotreatment), the “cytoplasmic calcium accumulation, Fluo-4 AM staining” value is listed as “effectively blocked” and the “free radicals (ROS), DCFH-DA staining” value is reported as “greatly inhibited”. Further, in the test with rat cardiomyocytes (PE, western blot), the MnSOD expression result is “restored” and the “phosphorylation level of Erk” value is recorded as “downregulated”. In addition, in test [1] (50 µmol PE 48 h, Ext.R 50 µg mL−1 or HBT 50 µmol), the “PE-induced hypertrophy, cardiomyocyte cell area” value is “attenuate PE‐induced hypertrophy”. The “transcriptional level of ANP and BNP” value in test [1] (50 µmol PE, Ext.R or HBT) is given as “inhibited”. Moreover, in test [1] (PE stimulation, western blot), the “phosphorylation of SGK1 and FoxO1” value is on record as “significantly reduce”; the “protein expression of ACTA1, BNP and Myosin” value was “significantly reduced”. Moreover, the “phosphorylation level of NF-κB p65 (Ser536)” value in test [1] (PE-treated cardiomyocytes) is given as “did not affect”. Moreover, in test [1] (induced by PE), the “phosphorylation of Nedd4l” value is listed as “reduce the phosphorylation”. Moreover, the Kd at SGK1 (KINOMEscan, read-out: binding constants (Kds) for SGK1) was found to be 0.84 µM. Besides, the “Kd fold lower than EMD638683” value at SGK1 (same KINOMEscan assay) is 14 fold.
